ChEMBL document CHEMBL3885861, “Open TG-GATES”

Species on record: Rattus norvegicus
Assay: Open TG-GATES - Regimen: Single
Assay type: toxicity, organism-based, Sprague-Dawley
Set-up: regimen Single, gender Male, age 6 weeks
Conditions: in vivo, po, route gavage; for APTT / Bas / Eos / Fbg / Hb / Ht / Lym / MCH / MCHC / MCV / Mono / Neu / PT / Plat / RBC / Ret / WBC: tissue Blood; for KIDNEY_L / KIDNEY_R / KIDNEY_TOTAL: tissue Kidney; for LIVER: tissue Liver; for A/G / ALP / ALT / AST / BUN / CRE / Ca / Cl / DBIL / GLC / IP / K / LDH / Na / PL / RALB / TBIL / TC / TG / TP / gamma-GTP: tissue Plasma
[1] = 50 mg/kg, 3 h, dose level Middle
[2] = 50 mg/kg, 6 h, dose level Middle
[3] = 50 mg/kg, 9 h, dose level Middle
[4] = 50 mg/kg, 24 h, dose level Middle
[5] = 150 mg/kg, 3 h, dose level High
[6] = 150 mg/kg, 6 h, dose level High
[7] = 150 mg/kg, 9 h, dose level High
[8] = 150 mg/kg, 24 h, dose level High

CN(C)CCC=C1c2ccccc2CCc2ccccc21 [AMITRIPTYLINE]
TERMINAL_BW [1]: 194.1 g
APTT [1]: 16.5 s
Bas [1]: 0.4%
Eos [1]: 1%
Fbg [1]: 273 mg/dL
Hb [1]: 13.2 g/dL
Ht [1]: 41.1%
Lym [1]: 74%
MCH [1]: 21.1 pg
MCHC [1]: 32.2%
MCV [1]: 65.4 fL
Mono [1]: 3.4%
Neu [1]: 20.4%
PT [1]: 15.8 s
Plat [1]: 128.6 x10_4/uL
RBC [1]: 629.2 x10_4/ul
Ret [1]: 9.2%
WBC [1]: 102.1 x10_2/uL
KIDNEY_L [1]: 0.9 g
KIDNEY_R [1]: 0.9 g
KIDNEY_TOTAL [1]: 1.7 g
LIVER [1]: 8.7 g
A/G [1]: 0.8
ALP [1]: 1574.4 IU/L
ALT [1]: 62.8 IU/L
AST [1]: 79 IU/L
BUN [1]: 8 mg/dL
CRE [1]: 0.2 mg/dL
Ca [1]: 11 mg/dL
Cl [1]: 107.8 meq/L
DBIL [1]: 0.012 mg/dL
GLC [1]: 192.8 mg/dL
IP [1]: 9.3 mg/dL
K [1]: 4.2 meq/L
LDH [1]: 90.8 IU/L
Na [1]: 144.2 meq/L
PL [1]: 143.2 mg/dL
RALB [1]: 2.5 g/dL
TBIL [1]: 0.062 mg/dL
TC [1]: 78.8 mg/dL
TG [1]: 42.8 mg/dL
TP [1]: 5.5 g/dL
gamma-GTP [1]: 0.8 IU/L
TERMINAL_BW [2]: 191.7 g
APTT [2]: 15.9 s
Bas [2]: 0.4%
Eos [2]: 1%
Fbg [2]: 283 mg/dL
Hb [2]: 13.1 g/dL
Ht [2]: 40.7%
Lym [2]: 72.6%
MCH [2]: 20.9 pg
MCHC [2]: 32.4%
MCV [2]: 64.7 fL
Mono [2]: 3%
Neu [2]: 22.4%
PT [2]: 15.9 s
Plat [2]: 117.4 x10_4/uL
RBC [2]: 629.4 x10_4/ul
Ret [2]: 9.3%
WBC [2]: 84.5 x10_2/uL
KIDNEY_L [2]: 0.9 g
KIDNEY_R [2]: 0.9 g
KIDNEY_TOTAL [2]: 1.8 g
LIVER [2]: 7.9 g
A/G [2]: 0.9
ALP [2]: 1530.6 IU/L
ALT [2]: 47 IU/L
AST [2]: 76.4 IU/L
BUN [2]: 6.8 mg/dL
CRE [2]: 0.1 mg/dL
Ca [2]: 10.7 mg/dL
Cl [2]: 106.8 meq/L
DBIL [2]: 0.006 mg/dL
GLC [2]: 179.2 mg/dL
IP [2]: 9.9 mg/dL
K [2]: 4.1 meq/L
LDH [2]: 65.4 IU/L
Na [2]: 143.4 meq/L
PL [2]: 138.2 mg/dL
RALB [2]: 2.5 g/dL
TBIL [2]: 0.07 mg/dL
TC [2]: 81.2 mg/dL
TG [2]: 34.8 mg/dL
TP [2]: 5.5 g/dL
gamma-GTP [2]: 0.8 IU/L
TERMINAL_BW [3]: 188 g
APTT [3]: 16.3 s
Bas [3]: 0%
Eos [3]: 1%
Fbg [3]: 282.6 mg/dL
Hb [3]: 13.2 g/dL
Ht [3]: 40.4%
Lym [3]: 74%
MCH [3]: 21.1 pg
MCHC [3]: 32.7%
MCV [3]: 64.5 fL
Mono [3]: 2.2%
Neu [3]: 22%
PT [3]: 15.7 s
Plat [3]: 117.9 x10_4/uL
RBC [3]: 626.2 x10_4/ul
Ret [3]: 8.6%
WBC [3]: 86.3 x10_2/uL
KIDNEY_L [3]: 0.8 g
KIDNEY_R [3]: 0.8 g
KIDNEY_TOTAL [3]: 1.6 g
LIVER [3]: 7.4 g
A/G [3]: 0.9
ALP [3]: 1395.8 IU/L
ALT [3]: 42.4 IU/L
AST [3]: 73.8 IU/L
BUN [3]: 8 mg/dL
CRE [3]: 0.1 mg/dL
Ca [3]: 10.8 mg/dL
Cl [3]: 107.2 meq/L
DBIL [3]: 0.014 mg/dL
GLC [3]: 170.2 mg/dL
IP [3]: 9.9 mg/dL
K [3]: 4.2 meq/L
LDH [3]: 72.8 IU/L
Na [3]: 142.4 meq/L
PL [3]: 143.4 mg/dL
RALB [3]: 2.5 g/dL
TBIL [3]: 0.062 mg/dL
TC [3]: 79.2 mg/dL
TG [3]: 49.8 mg/dL
TP [3]: 5.4 g/dL
gamma-GTP [3]: 1 IU/L
TERMINAL_BW [4]: 205.9 g
APTT [4]: 16.7 s
Bas [4]: 0.2%
Eos [4]: 1%
Fbg [4]: 268 mg/dL
Hb [4]: 13.1 g/dL
Ht [4]: 39.8%
Lym [4]: 79.2%
MCH [4]: 21.1 pg
MCHC [4]: 32.8%
MCV [4]: 64.4 fL
Mono [4]: 2.6%
Neu [4]: 16.2%
PT [4]: 16.4 s
Plat [4]: 117.1 x10_4/uL
RBC [4]: 618.8 x10_4/ul
Ret [4]: 8.8%
WBC [4]: 101.4 x10_2/uL
KIDNEY_L [4]: 0.9 g
KIDNEY_R [4]: 0.9 g
KIDNEY_TOTAL [4]: 1.7 g
LIVER [4]: 9.2 g
A/G [4]: 0.8
ALP [4]: 1528.4 IU/L
ALT [4]: 49.8 IU/L
AST [4]: 72.6 IU/L
BUN [4]: 14.2 mg/dL
CRE [4]: 0.2 mg/dL
Ca [4]: 11 mg/dL
Cl [4]: 105.2 meq/L
DBIL [4]: 0.018 mg/dL
GLC [4]: 181.6 mg/dL
IP [4]: 7.1 mg/dL
K [4]: 4.3 meq/L
LDH [4]: 69.2 IU/L
Na [4]: 142.6 meq/L
PL [4]: 153 mg/dL
RALB [4]: 2.6 g/dL
TBIL [4]: 0.056 mg/dL
TC [4]: 82.6 mg/dL
TG [4]: 97.8 mg/dL
TP [4]: 5.6 g/dL
gamma-GTP [4]: 0.2 IU/L
TERMINAL_BW [5]: 193.9 g
APTT [5]: 15.9 s
Bas [5]: 0.2%
Eos [5]: 0.4%
Fbg [5]: 285.6 mg/dL
Hb [5]: 13.4 g/dL
Ht [5]: 41.6%
Lym [5]: 75%
MCH [5]: 20.9 pg
MCHC [5]: 32.1%
MCV [5]: 65 fL
Mono [5]: 3.2%
Neu [5]: 20.4%
PT [5]: 16 s
Plat [5]: 120.6 x10_4/uL
RBC [5]: 641.4 x10_4/ul
Ret [5]: 9.3%
WBC [5]: 71.3 x10_2/uL
KIDNEY_L [5]: 0.9 g
KIDNEY_R [5]: 0.9 g
KIDNEY_TOTAL [5]: 1.7 g
LIVER [5]: 8.5 g
A/G [5]: 0.8
ALP [5]: 1527.2 IU/L
ALT [5]: 53.2 IU/L
AST [5]: 74.6 IU/L
BUN [5]: 7.8 mg/dL
CRE [5]: 0.2 mg/dL
Ca [5]: 10.9 mg/dL
Cl [5]: 107.4 meq/L
DBIL [5]: 0.006 mg/dL
GLC [5]: 188 mg/dL
IP [5]: 9.9 mg/dL
K [5]: 4.3 meq/L
LDH [5]: 67.4 IU/L
Na [5]: 145.6 meq/L
PL [5]: 138.8 mg/dL
RALB [5]: 2.5 g/dL
TBIL [5]: 0.058 mg/dL
TC [5]: 77 mg/dL
TG [5]: 40.6 mg/dL
TP [5]: 5.5 g/dL
gamma-GTP [5]: 0.8 IU/L
TERMINAL_BW [6]: 191.7 g
APTT [6]: 16.4 s
Bas [6]: 0%
Eos [6]: 0.6%
Fbg [6]: 273.8 mg/dL
Hb [6]: 12.7 g/dL
Ht [6]: 39.3%
Lym [6]: 74%
MCH [6]: 20.9 pg
MCHC [6]: 32.3%
MCV [6]: 64.6 fL
Mono [6]: 3.2%
Neu [6]: 21.2%
PT [6]: 15.7 s
Plat [6]: 123.7 x10_4/uL
RBC [6]: 610.2 x10_4/ul
Ret [6]: 9.3%
WBC [6]: 89.4 x10_2/uL
KIDNEY_L [6]: 0.8 g
KIDNEY_R [6]: 0.8 g
KIDNEY_TOTAL [6]: 1.6 g
LIVER [6]: 7.8 g
A/G [6]: 0.9
ALP [6]: 1508.6 IU/L
ALT [6]: 50.4 IU/L
AST [6]: 71 IU/L
BUN [6]: 7.4 mg/dL
CRE [6]: 0.1 mg/dL
Ca [6]: 10.7 mg/dL
Cl [6]: 108.2 meq/L
DBIL [6]: 0.004 mg/dL
GLC [6]: 179.6 mg/dL
IP [6]: 9.9 mg/dL
K [6]: 4.4 meq/L
LDH [6]: 57.4 IU/L
Na [6]: 143.4 meq/L
PL [6]: 149.6 mg/dL
RALB [6]: 2.5 g/dL
TBIL [6]: 0.058 mg/dL
TC [6]: 85.6 mg/dL
TG [6]: 28.8 mg/dL
TP [6]: 5.4 g/dL
gamma-GTP [6]: 0.6 IU/L
TERMINAL_BW [7]: 193.2 g
APTT [7]: 15.6 s
Bas [7]: 0%
Eos [7]: 0.8%
Fbg [7]: 305.8 mg/dL
Hb [7]: 13.1 g/dL
Ht [7]: 40.5%
Lym [7]: 65.4%
MCH [7]: 21 pg
MCHC [7]: 32.4%
MCV [7]: 64.8 fL
Mono [7]: 2.6%
Neu [7]: 30.2%
PT [7]: 15.6 s
Plat [7]: 125.8 x10_4/uL
RBC [7]: 625.2 x10_4/ul
Ret [7]: 9.1%
WBC [7]: 70.1 x10_2/uL
KIDNEY_L [7]: 0.8 g
KIDNEY_R [7]: 0.8 g
KIDNEY_TOTAL [7]: 1.7 g
LIVER [7]: 7.7 g
A/G [7]: 0.8
ALP [7]: 1542.6 IU/L
ALT [7]: 44.8 IU/L
AST [7]: 68.6 IU/L
BUN [7]: 7 mg/dL
CRE [7]: 0.1 mg/dL
Ca [7]: 10.8 mg/dL
Cl [7]: 107 meq/L
DBIL [7]: 0.01 mg/dL
GLC [7]: 193.4 mg/dL
IP [7]: 10.7 mg/dL
K [7]: 4.1 meq/L
LDH [7]: 82.4 IU/L
Na [7]: 143.4 meq/L
PL [7]: 142 mg/dL
RALB [7]: 2.5 g/dL
TBIL [7]: 0.06 mg/dL
TC [7]: 80.8 mg/dL
TG [7]: 42.2 mg/dL
TP [7]: 5.5 g/dL
gamma-GTP [7]: 1 IU/L
TERMINAL_BW [8]: 191.9 g
APTT [8]: 16.6 s
Bas [8]: 0.2%
Eos [8]: 1.2%
Fbg [8]: 277.4 mg/dL
Hb [8]: 13.6 g/dL
Ht [8]: 41.4%
Lym [8]: 80.4%
MCH [8]: 20.9 pg
MCHC [8]: 32.8%
MCV [8]: 63.7 fL
Mono [8]: 3%
Neu [8]: 14.6%
PT [8]: 17 s
Plat [8]: 123.6 x10_4/uL
RBC [8]: 649.6 x10_4/ul
Ret [8]: 8.1%
WBC [8]: 79.1 x10_2/uL
KIDNEY_L [8]: 0.9 g
KIDNEY_R [8]: 0.9 g
KIDNEY_TOTAL [8]: 1.8 g
LIVER [8]: 7.6 g
A/G [8]: 0.8
ALP [8]: 1505.6 IU/L
ALT [8]: 40.4 IU/L
AST [8]: 63 IU/L
BUN [8]: 13.8 mg/dL
CRE [8]: 0.2 mg/dL
Ca [8]: 10.9 mg/dL
Cl [8]: 105 meq/L
DBIL [8]: 0.016 mg/dL
GLC [8]: 182.6 mg/dL
IP [8]: 8.7 mg/dL
K [8]: 4.4 meq/L
LDH [8]: 58 IU/L
Na [8]: 142.2 meq/L
PL [8]: 133 mg/dL
RALB [8]: 2.5 g/dL
TBIL [8]: 0.062 mg/dL
TC [8]: 78.8 mg/dL
TG [8]: 47.8 mg/dL
TP [8]: 5.6 g/dL
gamma-GTP [8]: 1 IU/L
